Results: paper PMC11249646, “Small-Molecule Disruptors of the Interaction between Calcium- and Integrin-Binding Protein 1 and Integrin αIIbβ3 as Novel Antiplatelet Agents” (ACS Pharmacology & Translational Science, 2024)

biological target: T1, CIB1 and αIIb interaction (CIB1-GST : F-αIIb peptide) (Homo sapiens, UniProt Q99828); assay: FP assay, 1536-well qHTS format (primary and confirmatory screen); format: binding; details: confirmatory screen
T1 construct: made in house; host or cells: BL-21 plus RIL cells (E. coli)
T1 sequence (Q99828 1-191): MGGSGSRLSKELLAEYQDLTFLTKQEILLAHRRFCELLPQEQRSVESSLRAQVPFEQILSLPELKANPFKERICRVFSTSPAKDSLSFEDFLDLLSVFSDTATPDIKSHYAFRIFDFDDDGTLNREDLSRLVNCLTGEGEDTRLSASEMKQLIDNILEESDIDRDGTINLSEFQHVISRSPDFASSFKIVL

Compound | Efficacy (%) (confirmatory screen)
Cc1ccc(C)n1-c1sccc1C(=O)O [NCGC00253437-01] | -97
Cc1cnc(-c2ccccc2C(C)C)nc1NCc1ccc(-c2ccc(F)nc2)cc1.O=C(O)C(F)(F)F [NCGC00253893-01] | -124
N#Cc1ccc(NS(=O)(=O)c2ccc(Nc3nc(-c4ccccc4)cs3)cc2)cc1.O=C(O)C(F)(F)F [NCGC00262382-01] | -103

same assay, conditions: confirmatory screen, YES/NO

Compound | Confirm? (confirmatory screen)
Cc1ccc(C)n1-c1sccc1C(=O)O [NCGC00253437-01] | YES
Cc1cnc(-c2ccccc2C(C)C)nc1NCc1ccc(-c2ccc(F)nc2)cc1.O=C(O)C(F)(F)F [NCGC00253893-01] | YES
N#Cc1ccc(NS(=O)(=O)c2ccc(Nc3nc(-c4ccccc4)cs3)cc2)cc1.O=C(O)C(F)(F)F [NCGC00262382-01] | YES

same assay, conditions: confirmatory screen, YES/NO call

Compound | CONFIRMATORY SCREEN Confirm?
O=C(Cc1ccc(Cl)c(Cl)c1)Nc1ccc(S(=O)(=O)Nc2nncs2)cc1.O=C(O)C(F)(F)F [NCGC00248349-02] | YES
O=C(Cc1ccc(Cl)c(Cl)c1)Nc1ccc(S(=O)(=O)Nc2cccc(C(=O)O)c2)cc1.O=C(O)C(F)(F)F [NCGC00248362-01] | YES

same assay, conditions: confirmatory screen, qHTS curve class; negative sign = inhibitory curve

Compound | CONFIRMATORY SCREEN Curve Class | Curve Class (confirmatory screen)
O=C(Cc1ccc(Cl)c(Cl)c1)Nc1ccc(S(=O)(=O)Nc2nncs2)cc1.O=C(O)C(F)(F)F [NCGC00248349-02] | -1.4 | –
O=C(Cc1ccc(Cl)c(Cl)c1)Nc1ccc(S(=O)(=O)Nc2cccc(C(=O)O)c2)cc1.O=C(O)C(F)(F)F [NCGC00248362-01] | -1.4 | –
Cc1ccc(C)n1-c1sccc1C(=O)O [NCGC00253437-01] | – | -1.1
Cc1cnc(-c2ccccc2C(C)C)nc1NCc1ccc(-c2ccc(F)nc2)cc1.O=C(O)C(F)(F)F [NCGC00253893-01] | – | -2.1
N#Cc1ccc(NS(=O)(=O)c2ccc(Nc3nc(-c4ccccc4)cs3)cc2)cc1.O=C(O)C(F)(F)F [NCGC00262382-01] | – | -2.1

same assay, conditions: confirmatory screen; negative = inhibition

Compound | CONFIRMATORY SCREEN Efficacy (%)
O=C(Cc1ccc(Cl)c(Cl)c1)Nc1ccc(S(=O)(=O)Nc2nncs2)cc1.O=C(O)C(F)(F)F [NCGC00248349-02] | -31
O=C(Cc1ccc(Cl)c(Cl)c1)Nc1ccc(S(=O)(=O)Nc2cccc(C(=O)O)c2)cc1.O=C(O)C(F)(F)F [NCGC00248362-01] | -27

same assay, conditions: confirmatory screen; read-out: CONFIRMATORY SCREEN IC50

Compound | IC50 [µM]
O=C(Cc1ccc(Cl)c(Cl)c1)Nc1ccc(S(=O)(=O)Nc2nncs2)cc1.O=C(O)C(F)(F)F [NCGC00248349-02] | 12.6

same assay, conditions: confirmatory screen; read-out: IC50 [μM] (confirmatory screen)

Compound | IC50 [µM]
Cc1ccc(C)n1-c1sccc1C(=O)O [NCGC00253437-01] | 22.4
Cc1cnc(-c2ccccc2C(C)C)nc1NCc1ccc(-c2ccc(F)nc2)cc1.O=C(O)C(F)(F)F [NCGC00253893-01] | 112
N#Cc1ccc(NS(=O)(=O)c2ccc(Nc3nc(-c4ccccc4)cs3)cc2)cc1.O=C(O)C(F)(F)F [NCGC00262382-01] | 44.7

same assay, conditions: qHTS FP screen hits, Table S2; negative = inhibition

Compound | Efficacy (%)
N#Cc1ccc(NS(=O)(=O)c2ccc(Nc3nc(-c4ccccc4)cs3)cc2)cc1.O=C(O)C(F)(F)F [NCGC00262382-01] | -59

same assay, conditions: qHTS FP screen hits, Table S2; one class per curve where COUNT > 1; negative sign = inhibitory curve

Compound | Curve Class
N#Cc1ccc(NS(=O)(=O)c2ccc(Nc3nc(-c4ccccc4)cs3)cc2)cc1.O=C(O)C(F)(F)F [NCGC00262382-01] | -2.2

same assay, conditions: qHTS FP screen hits, Table S2; read-out: IC50

Compound | IC50 [µM]
N#Cc1ccc(NS(=O)(=O)c2ccc(Nc3nc(-c4ccccc4)cs3)cc2)cc1.O=C(O)C(F)(F)F [NCGC00262382-01] | 70.8

same assay, conditions: qHTS primary screen hits, Table S2; negative = inhibition

Compound | Efficacy (%)
O=C(Cc1ccc(Cl)c(Cl)c1)Nc1ccc(S(=O)(=O)Nc2nncs2)cc1.O=C(O)C(F)(F)F [NCGC00248349-02] | -24
O=C(Cc1ccc(Cl)c(Cl)c1)Nc1ccc(S(=O)(=O)Nc2cccc(C(=O)O)c2)cc1.O=C(O)C(F)(F)F [NCGC00248362-01] | -20
Cc1ccc(C)n1-c1sccc1C(=O)O [NCGC00253437-01] | -59
Cc1cnc(-c2ccccc2C(C)C)nc1NCc1ccc(-c2ccc(F)nc2)cc1.O=C(O)C(F)(F)F [NCGC00253893-01] | -52

same assay, conditions: qHTS primary screen hits, Table S2; negative sign = inhibitory curve

Compound | Curve Class
O=C(Cc1ccc(Cl)c(Cl)c1)Nc1ccc(S(=O)(=O)Nc2nncs2)cc1.O=C(O)C(F)(F)F [NCGC00248349-02] | -1.4
O=C(Cc1ccc(Cl)c(Cl)c1)Nc1ccc(S(=O)(=O)Nc2cccc(C(=O)O)c2)cc1.O=C(O)C(F)(F)F [NCGC00248362-01] | -1.4

same assay, conditions: qHTS primary screen hits, Table S2; negative sign = inhibitory curve; several classes where COUNT > 1

Compound | Curve Class
Cc1ccc(C)n1-c1sccc1C(=O)O [NCGC00253437-01] | -2.2
Cc1cnc(-c2ccccc2C(C)C)nc1NCc1ccc(-c2ccc(F)nc2)cc1.O=C(O)C(F)(F)F [NCGC00253893-01] | -2.4

same assay, conditions: qHTS primary screen hits, Table S2; read-out: IC50

Compound | IC50 [µM]
O=C(Cc1ccc(Cl)c(Cl)c1)Nc1ccc(S(=O)(=O)Nc2nncs2)cc1.O=C(O)C(F)(F)F [NCGC00248349-02] | 11.2
O=C(Cc1ccc(Cl)c(Cl)c1)Nc1ccc(S(=O)(=O)Nc2cccc(C(=O)O)c2)cc1.O=C(O)C(F)(F)F [NCGC00248362-01] | 12.6
Cc1ccc(C)n1-c1sccc1C(=O)O [NCGC00253437-01] | 44.7
Cc1cnc(-c2ccccc2C(C)C)nc1NCc1ccc(-c2ccc(F)nc2)cc1.O=C(O)C(F)(F)F [NCGC00253893-01] | 50.1

biological target: T2, GST-CIB1 : F-scrambled peptide (Homo sapiens, UniProt Q99828); assay: FP scrambled-peptide counter screen, 1536-well format; format: binding; details: counterscreen
T2 construct: made in house; host or cells: BL-21 plus RIL cells (E. coli)
T2 sequence (Q99828 1-191): T1 sequence (Q99828 1-191)

Compound | Efficacy (%) (counterscreen)
Cc1ccc(C)n1-c1sccc1C(=O)O [NCGC00253437-01] | -36
Cc1cnc(-c2ccccc2C(C)C)nc1NCc1ccc(-c2ccc(F)nc2)cc1.O=C(O)C(F)(F)F [NCGC00253893-01] | -90
N#Cc1ccc(NS(=O)(=O)c2ccc(Nc3nc(-c4ccccc4)cs3)cc2)cc1.O=C(O)C(F)(F)F [NCGC00262382-01] | -84

same assay, conditions: counterscreen, YES/NO

Confirm? (counterscreen) | Compound
YES | Cc1ccc(C)n1-c1sccc1C(=O)O [NCGC00253437-01]

same assay, conditions: counterscreen, qHTS curve class; negative sign = inhibitory curve

Compound | Curve Class (counterscreen)
Cc1ccc(C)n1-c1sccc1C(=O)O [NCGC00253437-01] | -1.2
Cc1cnc(-c2ccccc2C(C)C)nc1NCc1ccc(-c2ccc(F)nc2)cc1.O=C(O)C(F)(F)F [NCGC00253893-01] | -2.1
N#Cc1ccc(NS(=O)(=O)c2ccc(Nc3nc(-c4ccccc4)cs3)cc2)cc1.O=C(O)C(F)(F)F [NCGC00262382-01] | -2.2

same assay, conditions: counterscreen; read-out: IC50 [μM] (counterscreen)

Compound | IC50 [µM]
Cc1ccc(C)n1-c1sccc1C(=O)O [NCGC00253437-01] | 7.9
Cc1cnc(-c2ccccc2C(C)C)nc1NCc1ccc(-c2ccc(F)nc2)cc1.O=C(O)C(F)(F)F [NCGC00253893-01] | 44.7
N#Cc1ccc(NS(=O)(=O)c2ccc(Nc3nc(-c4ccccc4)cs3)cc2)cc1.O=C(O)C(F)(F)F [NCGC00262382-01] | 44.7

same assay, conditions: scrambled-peptide counterscreen

Compound | COUNTERSCREEN Efficacy (%)
O=C(Cc1ccc(Cl)c(Cl)c1)Nc1ccc(S(=O)(=O)Nc2nncs2)cc1.O=C(O)C(F)(F)F [NCGC00248349-02] | 12
O=C(Cc1ccc(Cl)c(Cl)c1)Nc1ccc(S(=O)(=O)Nc2cccc(C(=O)O)c2)cc1.O=C(O)C(F)(F)F [NCGC00248362-01] | 26

same assay, conditions: scrambled-peptide counterscreen, YES/NO call

Compound | COUNTERSCREEN Confirm?
O=C(Cc1ccc(Cl)c(Cl)c1)Nc1ccc(S(=O)(=O)Nc2nncs2)cc1.O=C(O)C(F)(F)F [NCGC00248349-02] | YES
O=C(Cc1ccc(Cl)c(Cl)c1)Nc1ccc(S(=O)(=O)Nc2cccc(C(=O)O)c2)cc1.O=C(O)C(F)(F)F [NCGC00248362-01] | YES

same assay, conditions: scrambled-peptide counterscreen, qHTS curve class

Compound | COUNTERSCREEN Curve Class
O=C(Cc1ccc(Cl)c(Cl)c1)Nc1ccc(S(=O)(=O)Nc2nncs2)cc1.O=C(O)C(F)(F)F [NCGC00248349-02] | 4
O=C(Cc1ccc(Cl)c(Cl)c1)Nc1ccc(S(=O)(=O)Nc2cccc(C(=O)O)c2)cc1.O=C(O)C(F)(F)F [NCGC00248362-01] | 4
